Measured values taken from PMC4595045 (Journal of medicinal chemistry, 2013).

Legend:
CaV1.3 LTCCs [1] = target: T1, CaV1.3 LTCCs (Rattus norvegicus, UniProt P27732); assay: FLIPR Fluo-8 calcium influx assay, HEK293 cells stably expressing CaV1.3; type: cell-based; conditions: for binding to CaV1.3 LTCCs (in words): bulky bicyclic ring analogues; for Selectivity, ratio of the IC50 values (CaV1.2/CaV1.3): CaV1.3 over CaV1.2; for binding affinity for CaV1.3 LTCCs (in words): even at 100 µM
CaV1.2 LTCCs = CaV1.2 LTCCs (Oryctolagus cuniculus, UniProt P15381); assay: FLIPR Fluo-8 calcium influx assay, HEK293 cells stably expressing CaV1.2; type: cell-based, rabbit; conditions: for binding to CaV1.2 LTCCs (in words): bulky bicyclic ring analogues; for binding affinity for CaV1.2 LTCCs (in words): even at 100 µM
CaV1.3 LTCCs [2] = target: T1, CaV1.3 LTCCs; conditions: more potent than 6; ref previous study; cited from earlier work

T1 sequence (P27732 whole entry): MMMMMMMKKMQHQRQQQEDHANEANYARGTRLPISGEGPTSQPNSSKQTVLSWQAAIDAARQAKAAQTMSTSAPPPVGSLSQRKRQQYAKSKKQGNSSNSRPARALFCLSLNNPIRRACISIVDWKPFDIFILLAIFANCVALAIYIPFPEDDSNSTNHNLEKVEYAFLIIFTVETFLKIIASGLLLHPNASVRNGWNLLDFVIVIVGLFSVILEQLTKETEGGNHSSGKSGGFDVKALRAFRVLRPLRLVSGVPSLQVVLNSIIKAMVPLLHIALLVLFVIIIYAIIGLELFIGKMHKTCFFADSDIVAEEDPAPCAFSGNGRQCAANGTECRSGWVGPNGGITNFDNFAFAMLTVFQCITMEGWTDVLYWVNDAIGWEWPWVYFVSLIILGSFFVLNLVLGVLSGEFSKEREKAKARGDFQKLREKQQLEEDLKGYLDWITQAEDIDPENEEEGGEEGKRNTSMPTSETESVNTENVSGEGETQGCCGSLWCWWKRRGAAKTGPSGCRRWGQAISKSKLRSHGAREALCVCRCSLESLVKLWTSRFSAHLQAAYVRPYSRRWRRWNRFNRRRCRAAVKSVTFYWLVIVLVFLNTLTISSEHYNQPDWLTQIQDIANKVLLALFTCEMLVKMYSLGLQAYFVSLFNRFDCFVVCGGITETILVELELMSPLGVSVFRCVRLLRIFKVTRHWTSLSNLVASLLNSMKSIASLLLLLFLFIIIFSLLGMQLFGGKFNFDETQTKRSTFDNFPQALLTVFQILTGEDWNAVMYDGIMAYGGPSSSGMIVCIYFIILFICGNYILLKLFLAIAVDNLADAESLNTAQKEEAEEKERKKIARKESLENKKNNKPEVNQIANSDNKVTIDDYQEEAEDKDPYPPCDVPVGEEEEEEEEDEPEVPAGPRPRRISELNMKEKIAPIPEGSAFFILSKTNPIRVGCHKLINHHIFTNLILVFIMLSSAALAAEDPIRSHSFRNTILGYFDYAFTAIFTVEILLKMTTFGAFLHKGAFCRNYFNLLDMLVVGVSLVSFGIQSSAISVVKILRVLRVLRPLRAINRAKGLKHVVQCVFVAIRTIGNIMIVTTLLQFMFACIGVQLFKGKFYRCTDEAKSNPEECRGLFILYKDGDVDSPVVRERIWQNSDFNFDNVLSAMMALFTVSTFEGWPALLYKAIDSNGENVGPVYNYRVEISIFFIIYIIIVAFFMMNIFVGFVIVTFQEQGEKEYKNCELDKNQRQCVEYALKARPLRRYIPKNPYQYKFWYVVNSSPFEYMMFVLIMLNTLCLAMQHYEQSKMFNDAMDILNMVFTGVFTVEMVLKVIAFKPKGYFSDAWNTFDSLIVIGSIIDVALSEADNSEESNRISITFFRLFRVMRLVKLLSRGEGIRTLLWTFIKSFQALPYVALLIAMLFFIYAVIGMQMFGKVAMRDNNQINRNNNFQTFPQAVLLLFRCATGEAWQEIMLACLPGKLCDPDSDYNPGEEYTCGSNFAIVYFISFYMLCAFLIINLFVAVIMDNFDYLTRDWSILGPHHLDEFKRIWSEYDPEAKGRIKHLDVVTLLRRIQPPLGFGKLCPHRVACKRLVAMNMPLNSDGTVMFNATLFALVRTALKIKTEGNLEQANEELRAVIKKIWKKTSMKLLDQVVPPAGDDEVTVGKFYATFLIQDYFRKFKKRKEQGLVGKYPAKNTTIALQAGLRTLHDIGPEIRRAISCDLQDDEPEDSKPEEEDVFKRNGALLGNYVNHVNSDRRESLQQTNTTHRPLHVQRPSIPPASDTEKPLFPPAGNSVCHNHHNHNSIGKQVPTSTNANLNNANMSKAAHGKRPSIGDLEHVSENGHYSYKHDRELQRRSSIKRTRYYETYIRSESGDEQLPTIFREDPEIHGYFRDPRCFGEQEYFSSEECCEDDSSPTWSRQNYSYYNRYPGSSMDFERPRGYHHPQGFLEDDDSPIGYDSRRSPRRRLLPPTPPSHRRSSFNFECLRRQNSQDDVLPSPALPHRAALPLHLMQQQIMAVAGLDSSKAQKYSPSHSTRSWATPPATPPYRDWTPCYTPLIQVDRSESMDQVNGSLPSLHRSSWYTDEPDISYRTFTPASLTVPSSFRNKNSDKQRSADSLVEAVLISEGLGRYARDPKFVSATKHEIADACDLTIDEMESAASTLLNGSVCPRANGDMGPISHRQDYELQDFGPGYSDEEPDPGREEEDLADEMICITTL
T1 sequence (P54287 whole entry partner): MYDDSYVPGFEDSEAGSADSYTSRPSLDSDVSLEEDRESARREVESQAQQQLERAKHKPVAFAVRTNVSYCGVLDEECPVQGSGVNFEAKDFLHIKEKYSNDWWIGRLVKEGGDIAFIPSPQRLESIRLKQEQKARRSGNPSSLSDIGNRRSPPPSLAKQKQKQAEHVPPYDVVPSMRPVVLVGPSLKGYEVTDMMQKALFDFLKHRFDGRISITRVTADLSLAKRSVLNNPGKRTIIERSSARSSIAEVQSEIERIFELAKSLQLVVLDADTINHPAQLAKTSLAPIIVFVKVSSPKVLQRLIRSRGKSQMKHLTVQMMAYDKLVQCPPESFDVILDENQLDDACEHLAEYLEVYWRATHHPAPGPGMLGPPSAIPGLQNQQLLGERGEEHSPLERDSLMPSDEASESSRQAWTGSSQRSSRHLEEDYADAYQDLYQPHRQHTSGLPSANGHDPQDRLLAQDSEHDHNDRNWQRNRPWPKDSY
T1 sequence (P54290 25-1091 partner): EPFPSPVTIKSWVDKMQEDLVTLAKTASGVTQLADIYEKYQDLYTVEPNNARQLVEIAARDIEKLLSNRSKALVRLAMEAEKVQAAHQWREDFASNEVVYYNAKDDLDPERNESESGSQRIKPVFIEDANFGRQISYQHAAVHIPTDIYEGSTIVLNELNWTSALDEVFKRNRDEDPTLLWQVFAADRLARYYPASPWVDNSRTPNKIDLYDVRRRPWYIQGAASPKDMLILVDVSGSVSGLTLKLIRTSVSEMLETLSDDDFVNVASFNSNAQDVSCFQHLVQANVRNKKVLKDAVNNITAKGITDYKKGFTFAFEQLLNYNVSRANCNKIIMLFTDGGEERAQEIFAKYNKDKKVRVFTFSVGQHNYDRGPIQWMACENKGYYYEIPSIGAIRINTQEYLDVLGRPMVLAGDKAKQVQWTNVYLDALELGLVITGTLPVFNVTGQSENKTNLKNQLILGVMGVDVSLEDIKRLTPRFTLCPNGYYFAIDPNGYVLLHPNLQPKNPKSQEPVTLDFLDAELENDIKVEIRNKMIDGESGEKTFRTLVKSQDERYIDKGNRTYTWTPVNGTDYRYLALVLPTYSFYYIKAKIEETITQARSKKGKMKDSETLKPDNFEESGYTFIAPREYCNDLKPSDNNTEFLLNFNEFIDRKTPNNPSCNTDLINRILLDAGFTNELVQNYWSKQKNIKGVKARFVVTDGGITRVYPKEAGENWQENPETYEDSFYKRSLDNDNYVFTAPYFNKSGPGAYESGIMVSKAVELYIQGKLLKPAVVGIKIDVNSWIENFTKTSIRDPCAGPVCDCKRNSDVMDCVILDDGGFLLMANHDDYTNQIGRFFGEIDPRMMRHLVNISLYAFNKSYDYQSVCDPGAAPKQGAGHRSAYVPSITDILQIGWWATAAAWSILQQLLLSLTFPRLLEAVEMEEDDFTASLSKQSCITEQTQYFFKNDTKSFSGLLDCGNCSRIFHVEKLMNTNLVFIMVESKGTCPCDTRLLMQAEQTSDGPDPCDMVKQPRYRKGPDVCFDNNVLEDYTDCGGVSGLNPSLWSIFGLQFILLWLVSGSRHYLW

CC1(C)[C@@H]2CC[C@@]1(C)[C@@H](N1C(=O)CC(=O)N(CCc3cccc(Cl)c3)C1=O)C2 [Compound 53]
binding to CaV1.3 LTCCs (in words) (CaV1.3 LTCCs [1]): almost no binding | binding to CaV1.2 LTCCs (in words) (CaV1.2 LTCCs): almost no binding

O=C1CC(=O)N(C2CC3CCC2C3)C(=O)N1CCc1ccc(Cl)cc1 (mixture of isomers) [Compound 7, N-(4-chlorophenethyl)-N′-(±)-endo-norbornylpyrimidine-2,4,6-(1H,3H,5H)-trione]
potency toward CaV1.3 LTCC relative to 6 (CaV1.3 LTCCs [2]): 3 fold

O=C1CC(=O)N([C@H]2C[C@H]3CC[C@@H]2C3)C(=O)N1CCc1cccc(Cl)c1 [Compound 49, 1-((1R,2S,4S)-Bicyclo[2.2.1]heptan-2-yl)-3-(3-chlorophenethyl)pyrimidine-2,4,6(1H,3H,5H)-trione]
Selectivity, ratio of the IC50 values (CaV1.2/CaV1.3) (CaV1.3 LTCCs [1]): >29

O=C1CC(=O)N([C@H]2CCNC2)C(=O)N1CCc1cccc(Cl)c1 [Compound 65]
binding affinity for CaV1.3 LTCCs (in words) (CaV1.3 LTCCs [1]): no binding affinity | binding affinity for CaV1.2 LTCCs (in words) (CaV1.2 LTCCs): no binding affinity

CC1(C)[C@@H]2CC[C@@]1(C)[C@@H](N1C(=O)CC(=O)N(CCc3ccc(Cl)cc3)C1=O)C2 [Compound 54]
binding to CaV1.3 LTCCs (in words) (CaV1.3 LTCCs [1]): almost no binding | binding to CaV1.2 LTCCs (in words) (CaV1.2 LTCCs): almost no binding

O=C1CC(=O)N([C@H]2CCC[C@@H]2O)C(=O)N1CCc1cccc(Cl)c1 [Compound 69]
binding affinity for CaV1.3 LTCCs (in words) (CaV1.3 LTCCs [1]): no binding affinity | binding affinity for CaV1.2 LTCCs (in words) (CaV1.2 LTCCs): no binding affinity

C[C@H](C1CCCCC1)N1C(=O)CC(=O)N(CCc2ccc(Cl)cc2)C1=O [Compound 46, (R)-1-(4-Chlorophenethyl)-3-(1-cyclohexylethyl)pyrimidine-2,4,6(1H,3H,5H)-trione]
Selectivity, ratio of the IC50 values (CaV1.2/CaV1.3) (CaV1.3 LTCCs [1]): >12

CC1(C)[C@@H]2CC[C@H](CN3C(=O)CC(=O)N(CCc4ccc(Cl)cc4)C3=O)[C@H]1C2 [Compound 56]
binding to CaV1.3 LTCCs (in words) (CaV1.3 LTCCs [1]): almost no binding | binding to CaV1.2 LTCCs (in words) (CaV1.2 LTCCs): almost no binding

CC1(C)[C@@H]2CC[C@H](CN3C(=O)CC(=O)N(CCc4cccc(Cl)c4)C3=O)[C@H]1C2 [Compound 55]
binding to CaV1.3 LTCCs (in words) (CaV1.3 LTCCs [1]): almost no binding | binding to CaV1.2 LTCCs (in words) (CaV1.2 LTCCs): almost no binding

C[C@@H](C1CCCCC1)N1C(=O)CC(=O)N(CCc2ccc(Cl)cc2)C1=O [Compound 44, (S)-1-(4-Chlorophenethyl)-3-(1-cyclohexylethyl)pyrimidine-2,4,6(1H,3H,5H)-trione]
Selectivity, ratio of the IC50 values (CaV1.2/CaV1.3) (CaV1.3 LTCCs [1]): >12

O=C(O)[C@H]1CC[C@@H](N2C(=O)CC(=O)N(CCc3cccc(Cl)c3)C2=O)C1 [Compound 67]
binding affinity for CaV1.3 LTCCs (in words) (CaV1.3 LTCCs [1]): no binding affinity | binding affinity for CaV1.2 LTCCs (in words) (CaV1.2 LTCCs): no binding affinity
